Assay results as given in ChEMBL document CHEMBL1140474, “Enhancement of oral drug absorption-effect of lipid conjugation on the enzymatic stability and intestinal permeability of l-Glu-l-Trp-NH(2)” (Bioorg Med Chem, 2007).
Where a SMILES comes first, the peptide text is derived from it. [ ]: non-standard residue; d: D form. ξ: configuration not given here. ξGly(dodecyl) = CCCCCCCCCCCCC(N)C(=O)O; ξGly(decyl) = CCCCCCCCCCC(N)C(=O)O; ξGly(octyl) = CCCCCCCCC(N)C(=O)O; ξAoc(2) = CCCCCCC(N)C(=O)O

Tests used:
[1] = Stability in human Caco-2 homogenates after 1 hr; type: ADME; conditions: Caco-2 cell homogenates, read-out: Stability
[2] = Apparent permeability across human Caco-2 cells; type: ADME, cell-based
[3] = Stability in human Caco-2 homogenates after 2 hrs; type: ADME; conditions: Caco-2 cell homogenates, read-out: Stability
Caco-2 [4] = assay: Stability in human Caco-2 homogenates after 20 mins; type: ADME; conditions: caco-2, 20 min
Caco-2 [5] = assay: Stability in human Caco-2 homogenates after 10 mins; type: ADME; conditions: caco-2, 10 min

Row | SMILES | remaining at 1 h [1] | Papp [2] | remaining at 2 h [3] | Activity (Caco-2 [4]) | Stability (Caco-2 [5])
1 | CCCCCCCCCCCCC(N)C(=O)N[C@@H](CCC(=O)O)C(=O)N[C@@H](Cc1c[nH]c2ccccc12)C(N)=O (some centres not stated) | 75% | 1.02 ×10⁻⁶ cm/s | 65% | – | –
2 | CCCCCCC(NC(=O)[C@@H](N)CCC(=O)O)C(=O)N[C@@H](Cc1c[nH]c2ccccc12)C(N)=O (some centres not stated) (H-Glu-[ξAoc(2)]-Trp-NH2) | – | 3.83 ×10⁻⁶ cm/s | 40% | – | –
3 | CCCCCCCCCCC(N)C(=O)NC(CCCCCCCCCC)C(=O)N[C@@H](CCC(=O)O)C(=O)N[C@@H](Cc1c[nH]c2ccccc12)C(N)=O (some centres not stated) (H-[ξGly(decyl)][ξGly(decyl)]EW-NH2) | – | 3.09 ×10⁻⁶ cm/s | 90% | Not Active | –
4 | CCCCCCC(N)C(=O)NC(CCCCCC)C(=O)N[C@@H](CCC(=O)O)C(=O)N[C@@H](Cc1c[nH]c2ccccc12)C(N)=O (some centres not stated) (H-[ξAoc(2)][ξAoc(2)]EW-NH2) | – | 8.32 ×10⁻⁶ cm/s | 90% | Not Active | –
5 | CCCCCCCCC(N)C(=O)NC(CCCCCCCC)C(=O)N[C@@H](CCC(=O)O)C(=O)N[C@@H](Cc1c[nH]c2ccccc12)C(N)=O (some centres not stated) (H-[ξGly(octyl)][ξGly(octyl)]EW-NH2) | – | 1.79 ×10⁻⁶ cm/s | 40% | Not Active | 15%
6 | CCCCCCCCCCCCC(N)C(=O)NC(CCCCCCCCCCCC)C(=O)N[C@@H](CCC(=O)O)C(=O)N[C@@H](Cc1c[nH]c2ccccc12)C(N)=O (some centres not stated) (H-[ξGly(dodecyl)][ξGly(dodecyl)]EW-NH2) | – | 2.77 ×10⁻⁶ cm/s | 90% | Not Active | –
7 | NC(=O)[C@H](Cc1c[nH]c2ccccc12)NC(=O)[C@@H](N)CCC(=O)O (H-Glu-Trp-NH2) | – | 7.76 ×10⁻⁶ cm/s | 35% | – | –

Next, values leading:

Row | remaining at 1 h [1] | Papp [2] | remaining at 2 h [3] | Activity (Caco-2 [4]) | Stability (Caco-2 [5]) | SMILES
8 | 75% | 9.26 ×10⁻⁶ cm/s | 65% | – | – | CCCCCCCCCCC(N)C(=O)N[C@@H](CCC(=O)O)C(=O)N[C@@H](Cc1c[nH]c2ccccc12)C(N)=O (some centres not stated)
9 | – | 4.66 ×10⁻⁶ cm/s | 40% | – | – | CCCCCCCCCCC(NC(=O)[C@@H](N)CCC(=O)O)C(=O)N[C@@H](Cc1c[nH]c2ccccc12)C(N)=O (some centres not stated)
10 | – | 3.99 ×10⁻⁶ cm/s | 40% | – | 15% | CCCCCCCCC(NC(=O)[C@@H](N)CCC(=O)O)C(=O)N[C@@H](Cc1c[nH]c2ccccc12)C(N)=O (some centres not stated)
11 | – | 1.55 ×10⁻⁶ cm/s | 40% | – | – | CCCCCCCCC(N)C(=O)N[C@@H](CCC(=O)O)C(=O)N[C@@H](Cc1c[nH]c2ccccc12)C(N)=O (some centres not stated)
12 | – | 4.84 ×10⁻⁶ cm/s | 40% | – | – | CCCCCCC(N)C(=O)N[C@@H](CCC(=O)O)C(=O)N[C@@H](Cc1c[nH]c2ccccc12)C(N)=O (stereo partly drawn) (H-[ξAoc(2)]-Glu-Trp-NH2)
